Measured values taken from patent publication US7851505B2, “Thiotungstate analogues and uses thereof” (priority 2003, dated 2010).
“And” between values parts separate entries of the source, which are not always exact repeats. Equal entries are not always repeated. Where two headings read alike, the source gives them in different places.

How the values were obtained:
[1] = Copper-binding ability: inhibition of cysteine autooxidation; type: biochemical; conditions: 100 μM Cys, 100 μM coumarin-3-carboxylic acid, 100 μM CuSO4
Experimental: The copper-binding ability of tetrathiotungstate salts was determined according to the ability of tetrathiotungstate salts to inhibit cysteine autooxidation as reported in Table 2 below.

[2] = Moisture stability of tetrathiotungstate salts; type: physicochemical
angiogenesis = assay: Matrigel plug assay (inhibition of angiogenesis); type: in vivo, athymic nude mice; conditions: FIG. 1
Experimental: This assay is performed essentially as described by Passaniti et al., Lab Invest. 1992, 67:519-528. Ice-cold Matrigel® (e.g., 500 μL) (Collaborative Biomedical Products, Inc., Bedford, Mass.) is mixed with heparin (e.g., 50 μg/ml), FGF-2 (e.g., 400 ng/ml) and the compound to be tested. In some assays, bFGF may be substituted with tumor cells as the angiogenic stimulus. The Matrigel® mixture is injected subcutaneously into 4-8 week-old athymic nude mice at sites near the abdominal midline, preferably 3 injections per mouse. The injected Matrigel®b forms a palpable solid gel. […] Hemoglobin (Hb) levels are determined using Drabkin's solution (e.g., obtained from Sigma) according to the manufacturers' instructions. […] The amount of fluorescence in the dispersed plug which is determined fluorimetrically serves as a measure of angiogenesis in the plug. […]
Ammonium tetrathiotungstate was assayed in the Matrigel® plug assay as described in Section 5.4.7, supra. Two positive controls were used with positive control 1 measured five days after implantation when treatment began and […] measured five days after implantation when treatment ended. Two negative controls were used with negative control 1 measured five days after implantation when treatment began and […] measured five days after implantation when treatment ended.

[3] = room temperature, 95% relative humidity, two weeks, purity by absorbance, * = partially soluble, ‡ = average of 2 data points

## NCCNCCNCCN [trientine, reference compound]
[1]; inhibitor concentration 1 μM
  % inhibition: 0.00%
[1]; inhibitor concentration 50 μM
  % inhibition: 39.71%

## Tetrathiotungstate, butane-1,4-bis(trimethylammonium)
[1]; inhibitor concentration 10 μM
  % inhibition: 87.32%
[1]; inhibitor concentration 50 μM
  % inhibition: 91.75%

## Tetrathiotungstate, ethylenebis(trimethylammonium)
[2]; [3]
  % degradation: 8.6* %
[1]; inhibitor concentration 10 μM
  % inhibition: 84.66%
[1]; inhibitor concentration 50 μM
  % inhibition: 89.60%

## Tetrathiotungstate, (succinylcholine)
[2]; [3]
  % degradation: 23.3* %
[1]; inhibitor concentration 1 μM
  % inhibition: 66.06%
[1]; inhibitor concentration 10 μM
  % inhibition: 81.38%

## Tetrathiotungstate, bis(ammonium) [reference compound]
[2]; [3]
  % degradation: −0.46%
[1]; inhibitor concentration 50 μM
  % inhibition: 95.94%
angiogenesis
  inhibition of angiogenesis: about 34%

## [NH4+].[NH4+].[SH-].[SH-].[S]=[Mo]=[S] [Tetrathiomolybdate, bis(ammonium), reference compound]
[1]; inhibitor concentration 1 μM
  % inhibition: 68.48%
[1]; inhibitor concentration 10 μM
  % inhibition: 87.71% and 76.69%
[1]; inhibitor concentration 50 μM
  % inhibition: 94.24%

## CC(=O)OC(C)C[N+](C)(C)C.CC(=O)OC(C)C[N+](C)(C)C.[S]=[W](=[S])([S-])[S-] (stereo not drawn) [Tetrathiotungstate, bis(acetyl-β-methylcholine)]
[2]; [3]
  % degradation: 4.2%
[1]; inhibitor concentration 50 μM
  % inhibition: 90.40%

## C[N+]1(C)CCCC1.C[N+]1(C)CCCC1.[S]=[W](=[S])([S-])[S-] [Tetrathiotungstate, bis(1,1-dimethylpyrrolidinium)]
[2]; [3]
  % degradation: 0.04%

## C[N+](C)(C)CCOC(=O)CCCCCCC(=O)OCC[N+](C)(C)C.[S]=[W](=[S])([S-])[S-] [Tetrathiotungstate, suberyldicholine]
[2]; [3]
  % degradation: 18.4* %
[1]; inhibitor concentration 1 μM
  % inhibition: 67.74%
[1]; inhibitor concentration 10 μM
  % inhibition: 77.83%

## CCn1cc[n+](C)c1.CCn1cc[n+](C)c1.[S]=[W](=[S])([S-])[S-] [Tetrathiotungstate, bis(l-ethyl-3-methyl-1H-imidazolium)]
[2]; [3]
  % degradation: 1.3%
[1]; inhibitor concentration 50 μM
  % inhibition: 91.16%

## C[N+](C)(C)CCO.C[N+](C)(C)CCO.[S]=[Mo](=[S])([S-])[S-] [Tetrathiomolybdate, bis (choline), reference compound]
[2]
  % degradation: 36 ± 2%

## Tetrathiotungstate, propane-1,3-bis(trimethylammonium)
[1]; inhibitor concentration 10 μM
  % inhibition: 85.53%
[1]; inhibitor concentration 50 μM
  % inhibition: 92.95%

## C[N+](C)(C)Cc1ccccc1.C[N+](C)(C)Cc1ccccc1.[S]=[W](=[S])([S-])[S-] [Tetrathiotungstate, bis(benzzyltrimethylammonium)]
[2]; [3]
  % degradation: 0.41%
[1]; inhibitor concentration 50 μM
  % inhibition: 94.62%

## C[N+](C)(C)CCO.C[N+](C)(C)CCO.[S]=[W](=[S])([S-])[S-] [Tetrathiotungstate, bis(choline)]
[2]
  % degradation: 3.0%
[1]; inhibitor concentration 50 μM
  % inhibition: 92.54% and 91.99%

## CC(=O)OCC[N+](C)(C)C.CC(=O)OCC[N+](C)(C)C.[S]=[W](=[S])([S-])[S-] [Tetrathiotungstate, bis(acetylcholine)]
[2]
  % degradation: 2.4%
[1]; inhibitor concentration 50 μM
  % inhibition: 90.36%

## C[N+](C)(C)c1ccccc1.C[N+](C)(C)c1ccccc1.[S]=[W](=[S])([S-])[S-] [Tetrathiotungstate, bis(trimethylphenylammonium)]
[2]; [3]
  % degradation: −0.46%
[1]; inhibitor concentration 50 μM
  % inhibition: 91.53%

## CC[N+](CC)(CC)c1ccccc1.CC[N+](CC)(CC)c1ccccc1.[S]=[W](=[S])([S-])[S-] [Tetrathiotungstate, bis(triethylphenyl ammonium)]
[2]; [3]
  % degradation: −0.12%
[1]; inhibitor concentration 50 μM
  % inhibition: 91.32%

## C[n+]1ccccc1C=NO.C[n+]1ccccc1C=NO.[S]=[W](=[S])([S-])[S-] [Tetrathiotungstate, bis(2-hydroxyiminomethyl-1-methyl-pyridinium)]
[2]; [3]
  % degradation: 5.6%
[1]; inhibitor concentration 50 μM
  % inhibition: 91.15%

## Tetrathiotungstate, pentane-1,5-bis(trimethylammonium)
[1]; inhibitor concentration 50 μM
  % inhibition: 90.69%

## Cc1cc[n+](C)cc1.Cc1cc[n+](C)cc1.[S]=[W](=[S])([S-])[S-] [Tetrathiotungstate, bis(1,4-dimethylpyridinium)]
[2]; [3]
  % degradation: 2.0%
[1]; inhibitor concentration 50 μM
  % inhibition: 89.98% and 89.66%
